The record followed here is patent US12673921B2, “Substituted fluorine-containing imidazole salt compound, preparation method therefor, pharmaceutical composition thereof and use thereof” (XIAMEN VIVOHEALTHS TECHNOLOGY CO., LTD., priority 2019, dated 2026).

“Also recorded” adds a separate entry of the source. Bounds are passed on as bounds.

In one data set the test system is human hepatocytes. Put plainly: Hepatocyte metabolism assay. It is filed as in vitro ADME. As for the experimental part: Experimental procedures: a test sample (concentration: 10 μM) or a positive control (concentration: 30 μM) was co-incubated with hepatic cells of various genera (cell density: 1.0×10^6 cells/mL) for 120 min under the conditions of 37° C./5% CO2/saturated humidity. The sample was centrifuged after protein precipitation by using acetonitrile solution containing 0.1% formic acid according to the proportion of 1:2, the supernatant was blown dry by nitrogen, and then redissolved by using 200 μl of a 10% acetonitrile/water (containing 0.1% formic acid) solution. 15 μL of the obtained solution was introduced each time to an LC-MS instrument system for analysis.

Data set [1] can be described thus: Liver microsome stability test, Beagle dog liver microsome. The data set is classed as in vitro ADME. To be noted: microsomes, 0.5 mg protein/mL microsome, 1 μM compound, 37° C., NADPH, read-out: DLM 0.5 T1/2 (min), half life in Beagle dog liver microsome. As for the experimental part: (§1) The experimental steps were as follows: • 1. Preparation of working solution • 1.1 Intermediate solution: 5 μL of a 10 mM stock solution of sample or control was taken out, and diluted with 495 μl of methanol (Conc.: 100 μM, 99% MeOH). • 1.2 Working solution: 50 μL of the intermediate solution was taken out, and diluted with 450 μL of a 100 mM potassium phosphate buffer (Conc.: 10 μM, 9.9% MeOH). • 2. Preparation of NADPH cofactor
(§2) An appropriate amount of NADPH powder was weighed, and dissolved with a MgCl2 (10 mM) solution. • 3. Liver microsome • 3.1 Liver microsome information
(§3) • 3.2 Preparation: a microsome working solution with an appropriate concentration was prepared by using a 100 mM potassium phosphate buffer. • 4. Stop solution
(§4) Glacial acetonitrile, comprising 100 ng/ml Tolbutamide and 100 ng/ml Labetalol as internal standards. • 5. Experimental procedures • 5.1 10 μL of the working solution of sample or control was added per well to all plates (T0, T5, T10, T20, T30, T60, NCF60), except for the blank group; • 5.2 80 μL of the working solution of microsome was added per well to all plates, followed by incubation for 10 min at 37° C.; • 5.3 10 μL of a 100 mM potassium phosphate buffer was added per well to NCF60, followed by incubation at 37° C. and starting timer 1;
(§5) • 5.4 After preheating, 10 μL of NADPH was added per well to each plate, and reaction was started;
(§6) Final concentration of each component in the incubation medium:
(§7) • 5.6 300 μL of the stop solution was added per well to stop the reaction; • 5.7 The system was shaken for about 10 min; • 5.8 The samples were centrifuged (4000 rpm) at 4° C. for 20 min; • 5.9 To 8 new 96-well plates, 300 μL of HPLC water was added per well, then 100 μL of the supernatant was added, mixed and subjected to LC/MS/MS.
(§8) In the above table, HLM 0.5 T1/2 (min) refers to half life (min) of compounds in human liver microsome, DLM 0.5 T1/2 (min) refers to half life (min) of compounds in Beagle dog liver microsome.

The test system of another data set is high-fat-fed obese mice. Kind of data set: In vivo efficacy in high-fat-fed obese mice (body weight, liver slice). Also noted: species or system mouse. To be noted: 90 days.
Source text: […]

Data set [2] is described as follows: Liver microsome stability test, human liver microsome. To be noted: microsomes, 0.5 mg protein/mL microsome, 1 μM compound, 37° C., NADPH, read-out: HLM 0.5 T1/2 (min), half life in human liver microsome. It is filed as in vitro ADME. As for the experimental part: as §1, §2, §3, §4, §5, §6, §7, §8

`Cc1n(CCCCCCCCCCCC(F)(F)C(F)(F)C(F)(F)C(F)(F)C(F)(F)F)cc[n+]1Cc1c(Cl)cccc1Cl.[Cl-]` [IB-33]: the “metabolic stability in human hepatocytes (in words)” value in the data set with human hepatocytes (human hepatocyte incubation, 120 min) is given as “relatively stable”. In the data set with human hepatocytes (human hepatocytes, after incubation for 120 min), the “relative content of original drug remained” value amounted to 79%. Moreover, in the data set on human hepatocytes (incubation of IB-33 10 μM with human hepatocytes, 120 min, parent drug and its possible metabolites), the “Relative abundance (MS peak area %)” value stood at 79.31%. Besides, the half-life at 1 μM in data set [1] and in data set [2] was more than 145 min in each case. Also, the body weight entry in the data set on high-fat-fed obese mice (s.c. 0.05, 0.15, 0.3 mg/kg once every two days) is reported as “significantly reduce the body weight; also recorded: effective in reducing body weight”. The “fat accumulation in the liver” value in the data set on high-fat-fed obese mice (s.c., HE stained liver slice) was “improve the fat accumulation level in the liver; also recorded: effective in reducing fat accumulation in the liver”.
